Results from ChEMBL document CHEMBL1132024, “N-phosphonoalkyl-5-aminomethylquinoxaline-2,3-diones: in vivo active AMPA and NMDA(glycine) antagonists” (Bioorg Med Chem Lett, 1999).

Tests used:
[1] = biological target: Glutamate NMDA receptor; assay: In vitro inhibition of binding of [3H]MDL-105519 towards glycine binding site of NMDA receptor in rat
[2] = tested on: Mus musculus; assay: In vivo anticonvulsant effects in the electroshock induced convulsion in mice after 50 mg/kg intraperitoneal administration and 1 hr pretreatment time; assay type: functional
[3] = biological target: Glutamate receptor ionotropic, AMPA (Rattus norvegicus) (UniProt P19491+P19492+P19493+P19490); assay: (§1) In vitro inhibition of binding of [3H]AMPA towards AMPA receptor in rat; settings: concentration not given here
[4] = tested on: Mus musculus; assay: In vivo anticonvulsant effects in the electroshock induced convulsion in mice after intraperitoneal administration and 1 hr pretreatment time; assay type: functional; settings: ip
[5] = biological target: Glutamate receptor ionotropic, AMPA (Rattus norvegicus, UniProt P19490+P19491+P19492+P19493); assay: as §1
[6] = Partition coefficient (logP); assay type: physicochemical; settings: octanol/water
[7] = tested on: Mus musculus; assay: In vivo anticonvulsant effects on electroshock induced convulsion in mice after i.p. administration and 30 min pretreatment.; assay type: functional; settings: ip
[8] = tested on: Mus musculus; assay: In vivo anticonvulsant effects in the electroshock induced convulsion in mice after 50 mg/kg intraperitoneal administration and 30 min pretreatment time; assay type: functional
[9] = tested on: Mus musculus; assay: In vivo anticonvulsant effects in the electroshock induced convulsion in mice after intraperitoneal administration and 15 min pretreatment time; assay type: functional; settings: ip
[10] = biological target: Glutamate receptor ionotropic, NMDA 1 (Rattus norvegicus) (UniProt P35439); assay: In vitro inhibition of binding of [3H]MDL-105,519 towards glycine binding site of NMDA receptor in rat; settings: concentration not given here
[11] = biological target: Glutamate receptor ionotropic, AMPA (Rattus norvegicus, UniProt P19491+P19492+P19493+P19490); assay: In vitro inhibition of binding of [3H]-AMPA towards AMPA receptor in rat; No affinity
Glutamate receptor ionotropic, AMPA (Rattus norvegicus, UniProt P19491+P19492+P19493+P19490), sequence (P19491 whole entry): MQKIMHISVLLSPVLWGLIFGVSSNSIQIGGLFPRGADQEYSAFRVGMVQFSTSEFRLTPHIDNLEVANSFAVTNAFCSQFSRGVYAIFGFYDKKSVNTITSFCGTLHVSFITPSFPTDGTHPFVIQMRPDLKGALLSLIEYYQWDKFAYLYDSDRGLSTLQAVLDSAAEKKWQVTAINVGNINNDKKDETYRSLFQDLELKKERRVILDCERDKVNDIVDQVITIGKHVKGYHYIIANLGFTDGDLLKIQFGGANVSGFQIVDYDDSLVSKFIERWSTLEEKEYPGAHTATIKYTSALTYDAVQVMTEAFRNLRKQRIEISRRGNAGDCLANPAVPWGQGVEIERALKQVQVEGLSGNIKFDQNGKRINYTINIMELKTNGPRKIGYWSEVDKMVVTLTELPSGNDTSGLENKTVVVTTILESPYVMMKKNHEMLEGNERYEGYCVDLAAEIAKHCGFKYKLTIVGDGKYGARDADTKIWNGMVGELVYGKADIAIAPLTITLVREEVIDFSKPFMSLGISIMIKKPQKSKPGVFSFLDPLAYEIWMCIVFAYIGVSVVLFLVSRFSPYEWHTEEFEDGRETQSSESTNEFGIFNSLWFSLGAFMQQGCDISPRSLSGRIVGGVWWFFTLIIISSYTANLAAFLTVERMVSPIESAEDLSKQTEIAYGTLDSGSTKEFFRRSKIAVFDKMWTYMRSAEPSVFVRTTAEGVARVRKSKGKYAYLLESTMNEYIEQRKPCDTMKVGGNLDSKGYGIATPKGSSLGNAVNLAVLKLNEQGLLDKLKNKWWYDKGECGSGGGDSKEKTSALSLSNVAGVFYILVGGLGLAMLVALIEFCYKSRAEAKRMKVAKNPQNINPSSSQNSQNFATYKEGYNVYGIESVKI
Glutamate receptor ionotropic, AMPA (Rattus norvegicus, UniProt P19491+P19492+P19493+P19490), sequence (P19492 whole entry): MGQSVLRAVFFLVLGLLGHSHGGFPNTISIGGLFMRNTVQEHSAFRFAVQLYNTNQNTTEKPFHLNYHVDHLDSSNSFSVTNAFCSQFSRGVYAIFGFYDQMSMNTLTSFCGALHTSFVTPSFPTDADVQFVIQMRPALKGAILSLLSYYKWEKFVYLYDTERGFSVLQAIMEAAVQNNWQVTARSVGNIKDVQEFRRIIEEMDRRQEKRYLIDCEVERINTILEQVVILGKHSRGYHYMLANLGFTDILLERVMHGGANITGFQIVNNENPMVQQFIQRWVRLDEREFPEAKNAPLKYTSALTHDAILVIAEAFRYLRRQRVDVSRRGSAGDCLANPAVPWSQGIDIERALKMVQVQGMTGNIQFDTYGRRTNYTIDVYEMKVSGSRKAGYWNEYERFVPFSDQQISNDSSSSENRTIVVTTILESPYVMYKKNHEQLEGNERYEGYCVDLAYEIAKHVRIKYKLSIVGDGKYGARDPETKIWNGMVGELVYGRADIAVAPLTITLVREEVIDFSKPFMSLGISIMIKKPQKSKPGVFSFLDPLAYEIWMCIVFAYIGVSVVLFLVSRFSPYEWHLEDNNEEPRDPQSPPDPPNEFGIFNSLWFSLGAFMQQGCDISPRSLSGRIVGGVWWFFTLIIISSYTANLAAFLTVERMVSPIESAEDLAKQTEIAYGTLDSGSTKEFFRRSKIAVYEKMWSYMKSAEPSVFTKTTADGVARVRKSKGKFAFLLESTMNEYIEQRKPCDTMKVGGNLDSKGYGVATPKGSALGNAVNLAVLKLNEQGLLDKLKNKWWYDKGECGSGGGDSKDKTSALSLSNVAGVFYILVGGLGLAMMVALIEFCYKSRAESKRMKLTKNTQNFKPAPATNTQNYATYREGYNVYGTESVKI
Glutamate receptor ionotropic, AMPA (Rattus norvegicus, UniProt P19491+P19492+P19493+P19490), sequence (P19493 whole entry): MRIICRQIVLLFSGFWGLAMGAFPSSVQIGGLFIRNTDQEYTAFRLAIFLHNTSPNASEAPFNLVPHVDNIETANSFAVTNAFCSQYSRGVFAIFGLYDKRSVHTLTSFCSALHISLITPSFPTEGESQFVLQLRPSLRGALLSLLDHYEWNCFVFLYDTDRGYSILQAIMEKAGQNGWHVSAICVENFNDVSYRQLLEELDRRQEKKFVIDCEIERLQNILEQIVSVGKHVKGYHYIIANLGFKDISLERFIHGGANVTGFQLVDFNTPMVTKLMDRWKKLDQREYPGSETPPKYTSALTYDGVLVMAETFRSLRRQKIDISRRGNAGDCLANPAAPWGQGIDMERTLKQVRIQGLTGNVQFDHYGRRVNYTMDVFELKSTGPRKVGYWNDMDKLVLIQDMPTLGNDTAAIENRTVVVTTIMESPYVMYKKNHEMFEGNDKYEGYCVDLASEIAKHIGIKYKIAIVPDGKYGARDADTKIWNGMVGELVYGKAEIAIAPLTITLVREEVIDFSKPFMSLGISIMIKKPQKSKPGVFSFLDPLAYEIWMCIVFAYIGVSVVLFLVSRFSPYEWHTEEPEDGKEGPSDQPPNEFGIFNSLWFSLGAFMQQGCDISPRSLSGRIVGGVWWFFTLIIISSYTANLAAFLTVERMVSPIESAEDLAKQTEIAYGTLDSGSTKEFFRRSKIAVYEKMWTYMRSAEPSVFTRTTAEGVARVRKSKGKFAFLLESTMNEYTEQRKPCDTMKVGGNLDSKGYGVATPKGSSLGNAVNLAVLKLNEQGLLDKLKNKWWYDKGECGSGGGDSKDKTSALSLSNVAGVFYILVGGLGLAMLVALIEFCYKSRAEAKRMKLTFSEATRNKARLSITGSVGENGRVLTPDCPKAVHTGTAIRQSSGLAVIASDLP
Glutamate receptor ionotropic, AMPA (Rattus norvegicus, UniProt P19491+P19492+P19493+P19490), sequence (P19490 whole entry): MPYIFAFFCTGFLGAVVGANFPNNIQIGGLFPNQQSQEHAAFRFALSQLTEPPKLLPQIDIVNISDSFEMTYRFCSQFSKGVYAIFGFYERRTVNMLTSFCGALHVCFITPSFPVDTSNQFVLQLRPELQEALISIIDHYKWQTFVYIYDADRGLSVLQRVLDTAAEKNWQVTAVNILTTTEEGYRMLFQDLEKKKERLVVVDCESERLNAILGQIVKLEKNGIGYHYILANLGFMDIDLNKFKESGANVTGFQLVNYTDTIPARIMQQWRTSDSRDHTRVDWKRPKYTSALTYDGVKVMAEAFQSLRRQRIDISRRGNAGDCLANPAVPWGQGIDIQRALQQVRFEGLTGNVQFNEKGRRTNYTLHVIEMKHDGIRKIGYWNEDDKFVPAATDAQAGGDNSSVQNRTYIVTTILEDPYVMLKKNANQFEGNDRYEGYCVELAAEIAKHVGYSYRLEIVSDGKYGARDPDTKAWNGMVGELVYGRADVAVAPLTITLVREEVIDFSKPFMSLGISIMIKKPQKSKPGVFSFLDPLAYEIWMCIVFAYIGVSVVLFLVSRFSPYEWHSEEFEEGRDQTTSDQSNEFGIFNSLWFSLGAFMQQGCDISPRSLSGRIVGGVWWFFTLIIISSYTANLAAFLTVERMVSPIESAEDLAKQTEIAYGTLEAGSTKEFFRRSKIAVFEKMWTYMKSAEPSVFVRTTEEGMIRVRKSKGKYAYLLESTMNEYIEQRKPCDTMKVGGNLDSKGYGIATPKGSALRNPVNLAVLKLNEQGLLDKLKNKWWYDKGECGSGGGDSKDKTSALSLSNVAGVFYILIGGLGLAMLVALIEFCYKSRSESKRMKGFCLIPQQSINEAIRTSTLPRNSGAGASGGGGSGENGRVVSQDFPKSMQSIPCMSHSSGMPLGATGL

[12] = biological target: Glutamate receptor ionotropic, NMDA 1 (Rattus norvegicus) (UniProt P35439); assay: In vitro inhibition of binding of [3H]MDL-105519 towards glycine binding site of NMDA receptor in rat at a concentration of 1 uM
[13] = tested on: Mus musculus; assay: In vivo anticonvulsant effects in the electroshock induced convulsion in mice after intraperitoneal administration and 2 hr pretreatment time; assay type: functional; settings: ip

| SMILES | IC50 [1] [nM] | IC50 [5] [nM] | ED50 [7] [mg/kg] | other results |
| --- | --- | --- | --- | --- |
| O=C(O)CSCc1cc(Br)cc2nc(O)c(O)nc12 | 120 | – | – | Protection [2]: 0%; inhibition [3]: 22% |
| O=P(O)(O)CNCc1cc(Br)cc2nc(O)c(O)nc12 | 100 | 2400 | – | Protection [8]: 0% |
| CCN(Cc1cc(C(F)(F)F)cc2nc(O)c(O)nc12)[C@@H](C)P(=O)(O)O | 4000 | 68 | 10 | – |
| C[C@H](NCc1cc(Br)cc2nc(O)c(O)nc12)P(=O)(O)O | – | 1400 | 43 | – |
| NCc1ccc(NC(=O)C[C@@H]2CCc3cc(Cl)cc4[nH]c(=O)c(=O)n2c34)c(OCC(=O)O)c1 | 500 | – | – | IC50 [11]: Not Active |
| O=C(O)COCc1cc(Br)cc2nc(O)c(O)nc12 | 110 | – | – | Protection [2]: 0%; inhibition [3]: 4% |
| C[C@@H](NCc1cc(Br)cc2nc(O)c(O)nc12)C(=O)O | 120 | 4500 | – | – |
| O=C(O)COCc1cc([N+](=O)[O-])cc2nc(O)c(O)nc12 | 310 | 2000 | – | – |
| CCC(NCc1cc(Br)cc2nc(O)c(O)nc12)P(=O)(O)O (centres undefined) | 45 | – | – | Protection [8]: 20%; inhibition [3]: 16% |
| Br.O=C(O)CNCc1cc(Br)cc2nc(O)c(O)nc12 | 40 | 4700 | – | Protection [8]: 0% |
| COC(=O)C(C)(C)NCc1cc([N+](=O)[O-])cc2nc(O)c(O)nc12 | – | 1900 | – | inhibition [12]: -3% |
| C[C@@H](NCc1cc(Br)cc2nc(O)c(O)nc12)P(=O)(O)O | – | 3000 | 12 | ED50 [13]: 18 mg/kg |
| O=P(O)(O)CNCc1cc(C(F)(F)F)cc2nc(O)c(O)nc12 | 300 | 2000 | 30 | – |
| C[C@H](NCc1cc(Br)cc2nc(O)c(O)nc12)C(=O)O | 2200 | 4300 | – | – |
| O=C(O)CCNCc1cc(Br)cc2nc(O)c(O)nc12 | – | 3800 | – | inhibition [12]: 37% |
| O=C(O)C1CCN(Cc2cc([N+](=O)[O-])cc3nc(O)c(O)nc23)CC1 | 3900 | 70 | 44 | – |

More lines, in order of falling IC50 [5], values ahead:

| IC50 [1] [nM] | IC50 [5] [nM] | SMILES | ED50 [7] [mg/kg] | other results |
| --- | --- | --- | --- | --- |
| 420 | 1300 | CC(OCc1cc([N+](=O)[O-])cc2nc(O)c(O)nc12)C(=O)O (centres undefined) | – | – |
| – | 1300 | CC(=O)N(Cc1cc([N+](=O)[O-])cc2nc(O)c(O)nc12)C(C)P(=O)(O)O (centres undefined) | – | inhibition [12]: 31% |
| 6 | 1200 | C[C@@H](NCc1cc(C(F)(F)F)cc2[nH]c(=O)c(=O)[nH]c12)P(=O)(O)O | 8 | – |
| – | 1200 | Br.CC[C@H](NCc1cc([N+](=O)[O-])cc2nc(O)c(O)nc12)C(=O)O | – | inhibition [10]: 34%; Protection [8]: 0% |
| – | 640 | O=[N+]([O-])c1cc(CNCCP(=O)(O)O)c2nc(O)c(O)nc2c1 | 18 | inhibition [12]: 8% |
| 9000 | 610 | O=C(O)CCCNCc1cc([N+](=O)[O-])cc2nc(O)c(O)nc12 | – | – |
| 590 | 540 | C[C@H](NCc1cc(C(F)(F)F)cc2nc(O)c(O)nc12)P(=O)(O)O | 20 | – |
| – | 380 | C[C@H](NCc1cc([N+](=O)[O-])cc2nc(O)c(O)nc12)P(=O)(O)O | 8 | inhibition [12]: 51% |
| 1300 | 380 | Br.C[C@@H](NCc1cc([N+](=O)[O-])cc2nc(O)c(O)nc12)C(=O)O | – | Protection [8]: 0% |
| 19000 | 380 | Br.O=C(O)CCNCc1cc([N+](=O)[O-])cc2nc(O)c(O)nc12 | 35 | – |
| – | 340 | Br.C[C@H](NCCc1cc([N+](=O)[O-])cc2nc(O)c(O)nc12)C(=O)O | – | inhibition [10]: 22%; Protection [8]: 0% |
| 1700 | 310 | Br.C[C@H](NCc1cc([N+](=O)[O-])cc2nc(O)c(O)nc12)C(=O)O | – | ED50 [4]: 19 mg/kg; Protection [2]: 0%; logP [6]: -1.93 |
| – | 310 | CCN(Cc1cc([N+](=O)[O-])cc2nc(O)c(O)nc12)[C@H](C)P(=O)(O)O | 26 | inhibition [12]: 25% |
| 1000 | 290 | O=c1[nH]c2cc([N+](=O)[O-])cc(CNCP(=O)(O)O)c2[nH]c1=O | 7 | – |
| – | 290 | Br.CC(C)(NCc1cc([N+](=O)[O-])cc2nc(O)c(O)nc12)C(=O)O | – | inhibition [10]: -9%; Protection [8]: 0% |
| – | 200 | C[C@@H](CP(=O)(O)O)NCc1cc([N+](=O)[O-])cc2nc(O)c(O)nc12 | 10 | inhibition [12]: 15% |
| – | 200 | C[C@H](CP(=O)(O)O)NCc1cc([N+](=O)[O-])cc2nc(O)c(O)nc12 | 9 | inhibition [12]: 6% |
| 32 | 170 | C[C@@H](NCc1cc([N+](=O)[O-])cc2[nH]c(=O)c(=O)[nH]c12)[P+]([O-])(O)O | 3 | – |
| 760 | 160 | Br.O=C(O)CNCc1cc([N+](=O)[O-])cc2nc(O)c(O)nc12 | – | ED50 [9]: 32 mg/kg |
| – | 120 | Br.CCN(Cc1cc([N+](=O)[O-])cc2nc(O)c(O)nc12)CP(=O)(O)O | 18 | inhibition [12]: 24% |
| – | 80 | CCN(Cc1cc([N+](=O)[O-])cc2nc(O)c(O)nc12)[C@@H](C)P(=O)(O)O | 7 | ED50 [13]: 18 mg/kg; logP [6]: -3.5 |
